Paper PMC3878488, “Biarsenical ligands bind to endogenous G-protein α-subunits and enable allosteric sensing of nucleotide binding” (BMC Biochemistry, 2013)

Columns and labels:
Assay in all cases: F2FlAsH fluorescence anisotropy, nucleotide titration
Assay type in all cases: binding
[1] = test system: T1, αq + βγM (F2FlAsH-labeled); details: pH 7.8, 28°C, 2 mM MgCl2, 1 mM EDTA, 6 h; 15 nM F2FlAsH allosteric label
T1 construct: gene GNAQ; wild-type alpha (Kerafast, purified by GST-Ric8 association), reconstituted with beta1 / StrepII- and CCKACC-tagged gamma2 from Sf9
Source text: F2FlAsH fluorescence anisotropy, nucleotide titration on αq + βγM (F2FlAsH-labeled)

[2] = test system: T2, αsshort + βγM (F2FlAsH-labeled); details: pH 7.8, 28°C, 2 mM MgCl2, 1 mM EDTA, 6 h; 15 nM F2FlAsH allosteric label
T2 construct: gene GNAS; wild-type alpha (Kerafast, purified by GST-Ric8 association), reconstituted with beta1 / StrepII- and CCKACC-tagged gamma2 from Sf9
Source text: F2FlAsH fluorescence anisotropy, nucleotide titration on αsshort + βγM (F2FlAsH-labeled)

αi2βγM (F2FlAsH-labeled) = test system: T3, αi2βγM (F2FlAsH-labeled); details: pH 7.8, 28°C, 2 mM MgCl2, 1 mM EDTA, 2 h; 5 nM F2FlAsH allosteric label, ~40 nM nucleotide-depleted heterotrimer
T3 construct: gene GNAI2; wild-type alpha co-expressed in Sf9 with beta1 / StrepII- and CCKACC-tagged gamma2; nucleotide-depleted heterotrimer
Source text: F2FlAsH fluorescence anisotropy, nucleotide titration on αi2βγM (F2FlAsH-labeled)

[3] = test system: T4, αolf + βγM (F2FlAsH-labeled); details: pH 7.8, 28°C, 2 mM MgCl2, 1 mM EDTA, 6 h; 15 nM F2FlAsH allosteric label
T4 construct: gene GNAL; wild-type alpha (Kerafast, purified by GST-Ric8 association), reconstituted with beta1 / StrepII- and CCKACC-tagged gamma2 from Sf9
Source text: F2FlAsH fluorescence anisotropy, nucleotide titration on αolf + βγM (F2FlAsH-labeled)

αi3βγM (F2FlAsH-labeled) = test system: T5, αi3βγM (F2FlAsH-labeled); details: pH 7.8, 28°C, 2 mM MgCl2, 1 mM EDTA, 2 h; 5 nM F2FlAsH allosteric label, ~40 nM nucleotide-depleted heterotrimer
T5 construct: gene GNAI3; wild-type alpha co-expressed in Sf9 with beta1 / StrepII- and CCKACC-tagged gamma2; nucleotide-depleted heterotrimer
Source text: F2FlAsH fluorescence anisotropy, nucleotide titration on αi3βγM (F2FlAsH-labeled)

αi1βγM (F2FlAsH-labeled) = test system: T6, αi1βγM (F2FlAsH-labeled); details: pH 7.8, 28°C, 2 mM MgCl2, 1 mM EDTA, 2 h; 5 nM F2FlAsH allosteric label, ~40 nM nucleotide-depleted heterotrimer
T6 construct: gene GNAI1; wild-type alpha co-expressed in Sf9 with beta1 / StrepII- and CCKACC-tagged gamma2; nucleotide-depleted heterotrimer
Source text: F2FlAsH fluorescence anisotropy, nucleotide titration on αi1βγM (F2FlAsH-labeled)

[4] = test system: T7, α13 + βγM (F2FlAsH-labeled); details: pH 7.8, 28°C, 2 mM MgCl2, 1 mM EDTA, 14 h; 15 nM F2FlAsH allosteric label
T7 construct: gene GNA13; wild-type alpha (Kerafast, purified by GST-Ric8 association), reconstituted with beta1 / StrepII- and CCKACC-tagged gamma2 from Sf9
Source text: F2FlAsH fluorescence anisotropy, nucleotide titration on α13 + βγM (F2FlAsH-labeled)

[5] = test system: T8, αslong + βγM (F2FlAsH-labeled); details: pH 7.8, 28°C, 2 mM MgCl2, 1 mM EDTA, 6 h; 15 nM F2FlAsH allosteric label
T8 construct: gene GNAS; wild-type alpha (Kerafast, purified by GST-Ric8 association), reconstituted with beta1 / StrepII- and CCKACC-tagged gamma2 from Sf9
Source text: F2FlAsH fluorescence anisotropy, nucleotide titration on αslong + βγM (F2FlAsH-labeled)

Nc1nc2c(ncn2[C@@H]2O[C@H](COP(=O)(O)O)[C@@H](O)[C@H]2O)c(=O)[nH]1 [GMP]
GMP [1]: < 3 -log M | GMP [2]: < 3 -log M | GMP (αi2βγM (F2FlAsH-labeled)): 4.45 ± 0.07 -log M | GMP [3]: < 3 -log M | GMP (αi3βγM (F2FlAsH-labeled)): 5.29 ± 0.13 -log M | GMP (αi1βγM (F2FlAsH-labeled)): 5.89 ± 0.12 -log M

Nc1nc2c(ncn2[C@@H]2O[C@H](COP(=O)(O)OP(=O)(O)NP(=O)(O)O)[C@@H](O)[C@H]2O)c(=O)[nH]1 [GppNHp]
GppNHp [1]: 5.96 ± 0.07 -log M | GppNHp [2]: 6.42 ± 0.04 -log M | GppNHp [4]: 5.36 ± 0.14 -log M | GppNHp (αi2βγM (F2FlAsH-labeled)): 7.84 ± 0.14 -log M | GppNHp [3]: 5.84 ± 0.05 -log M | GppNHp [5]: 6.56 ± 0.07 -log M | GppNHp (αi3βγM (F2FlAsH-labeled)): 7.93 ± 0.07 -log M | GppNHp (αi1βγM (F2FlAsH-labeled)): 8.08 ± 0.04 -log M

Nc1nc2c(ncn2[C@@H]2O[C@H](COP(=O)(O)OP(=O)(O)O)[C@@H](O)[C@H]2O)c(=O)[nH]1 [GDP]
GDP [1]: 5.87 ± 0.06 -log M | GDP [2]: 4.85 ± 0.05 -log M | GDP [4]: 4.98 ± 0.23 -log M | GDP (αi2βγM (F2FlAsH-labeled)): 8.17 ± 0.13 -log M | GDP [3]: 5.00 ± 0.03 -log M | GDP [5]: 4.72 ± 0.18 -log M | GDP (αi3βγM (F2FlAsH-labeled)): 8.08 ± 0.10 -log M | GDP (αi1βγM (F2FlAsH-labeled)): 8.19 ± 0.16 -log M

Nc1nc2c(ncn2[C@@H]2O[C@H](COP(=O)(O)OP(=O)(O)OP(O)(O)=S)[C@@H](O)[C@H]2O)c(=O)[nH]1 [GTPγS]
GTPγS [1]: 6.27 ± 0.05 -log M | GTPγS [2]: 7.06 ± 0.04 -log M | GTPγS [4]: 5.65 ± 0.13 -log M | GTPγS (αi2βγM (F2FlAsH-labeled)): 8.02 ± 0.09 -log M | GTPγS [3]: 6.43 ± 0.04 -log M | GTPγS [5]: 7.47 ± 0.09 -log M | GTPγS (αi3βγM (F2FlAsH-labeled)): 7.87 ± 0.06 -log M
